Where a SMILES comes first, the peptide text is derived from it. [ ]: non-standard residue; d: D form. The star is where a group is joined. HYNIC = NNc1ccc(C(=O)*)cn1; Ac6c = NC1(C(=O)O)CCCCC1; Nle = CCCC[C@H](N)C(=O)O; For = O=C*
What was measured:
E. coli infection = system: E. coli infection; set-up: species or system New Zealand white rabbits; conditions: rabbit, in vivo
Protocol: In order to determine the feasibility of using radiolabeled chemotactic peptides for infection localization in animals that are sensitive to the neutropenic effects of these agents, imaging studies were performed in rabbits with focal E. coli infections. High specific activity ^99m Tc-labeled chemotactic peptide was used in these studies. Six male New Zealand white rabbits weighing 2-3 kg were anesthetized with ketamine and xylazine (15.0 and 1.5 mg/kg) and injected in the left posterior thigh muscle with a 1.0 mL suspension of approximately 2×10^9 E. coli. […] Images were recorded for a preset time of 5 minutes/view with a 15% window centered to include the 140 KeV photopeak of ^99m Tc. […]
After acquiring the final images, the animals were sacrificed by pentobarbital overdose and samples of blood, heart, lung, liver, spleen, kidney, stomach, intestine, testes, bone, marrow, normal skeletal muscle, infected skeletal muscle, and pus were weighed and radioactivity was measured as described above. To correct for radioactive decay, aliquots of the injected doses were counted simultaneously. The results were expressed as percent injected dose per gram. […] The cells were washed with 0.9% NaCl and the residual radioactivity in the cells and supernatant measured. […]

[1] = Example 1: biological activity (EC50) of peptide and DTPA derivative
Text: The chemotactic peptide N-formyl-Nle-Leu-Phe-Nle-Tyr-Lys was synthesized using standard solid phase methods well-known in the art (Merrifield, R. B., J. Am. Chem. Soc. […]:2149-2154 (1963); Stewart, J. M., and Young, J. D., Solid Phase Peptide Synthesis, W. H. Freeman & Company, San Francisco, Calif. (1969)). The epsilon amino group of the C-terminal lysine was modified with DTPA using a cyclic anhydride. […] The peptide was readily radiolabeled with ^111 In.

[2] = biological target: T1, chemoattractant receptor on human PMN's (Homo sapiens, UniProt P21462); assay: For-MLF receptor binding assay (For-ML[3H]F displacement); conditions: 15 nM For-ML[3H]F, 45 min, 24° C.
T1 construct: endogenous in cells; host or cells: isolated human PMN's (neutrophils) from healthy volunteers, intact cells
T1 sequence (P21462 1-350): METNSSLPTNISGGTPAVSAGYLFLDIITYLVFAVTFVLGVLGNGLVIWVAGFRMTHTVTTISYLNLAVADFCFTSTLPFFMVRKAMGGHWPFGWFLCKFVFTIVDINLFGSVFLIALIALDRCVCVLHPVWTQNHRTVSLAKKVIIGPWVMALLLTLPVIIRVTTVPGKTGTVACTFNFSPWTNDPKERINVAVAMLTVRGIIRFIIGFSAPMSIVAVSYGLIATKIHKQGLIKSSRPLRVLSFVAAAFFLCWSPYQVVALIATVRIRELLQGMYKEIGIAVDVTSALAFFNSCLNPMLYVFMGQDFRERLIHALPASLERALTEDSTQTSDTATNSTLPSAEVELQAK
Protocol: Following incubation, the cells were filtered onto glass fiber discs (Whatman GF/C; Whatman, Inc., Clifton, N.J.) which were then washed with 20 mL of ice cold incubation buffer. The filters were placed in scintillation vials with 10 mL of Safety-Solve (Research Products International Corp., Mt. Prospect, Ill.) and radioactivity was measured by liquid scintillation spectroscopy. Specific binding is defined as total binding minus nonspecific binding. Nonspecific binding is the amount of residual bound radioactivity in the presence of 10 μM unlabeled For-MLF.
(§1) The chemical purity of the final product was evaluated by TLC, HPLC, UV spectroscopy, mass spectroscopy, and amino acid analysis. Determinations of the EC50 's for binding to the chemoattractant receptor on human PMN's and superoxide generation were performed as described in Pike, M. C., and Snyderman, R., Methods Enzymol. 162:236-245 (1988); Pike, M. C., et al., Blood 67:909-913 (1986); and Fischman, A. J., et al., J. Nucl. Med. 32:483-491 (1991).

sterile inflammation = system: sterile inflammation; set-up: species or system Rhesus monkeys; conditions: rhesus monkey, in vivo
Protocol: Two adult female Rhesus monkeys weighing approximately 10 kg were used in the imaging experiments. Since these animals had been used previously in imaging experiments with other radiopharmaceuticals, they had received numerous intramuscular injections in the right posterior thigh during the induction of anesthesia.
Under light ketamine anesthesia (5.5 mg/kg), the animals were injected intravenously through a leg vein with approximately 0.5 mCi ^99m -Tc-labeled peptide (<2.0 ng/kg). At 5 min, 30 min, 1 hr, and 19 hrs following injection of radiolabeled peptide, the animals were anesthetized with ketamine/xylazine (15.0 and 1.5 mg/kg) and whole body scintigrams were acquired using a large field of view gamma camera equipped with a parallel hole high resolution low energy collimator interfaced to a dedicated computer system (Technicare Gemini 700, Technicare 560, Solon, Ohio). […] At 5 minutes prior to injection and 1, 3, 5, and 15 minutes after injection 0.5 mL samples of blood were collected and the CBC was measured.
Regions of interest were drawn over: the whole animal, cardiac blood pool, lung, liver, spleen, kidney, intestine, bone, normal muscle, and inflamed muscle; and count densities (CPM/pixel) were calculated. The results were expressed as tissue-to-blood pool, % injected dose/gram (%ID/g) and target to background ratios (inflamed thigh/contralateral thigh).

human neutrophils = assay: Assay of superoxide production (ferricytochrome C reduction); type: cell-based; conditions: 0.1 μM
Protocol: as §1

rabbit neutrophils = assay: Lysozyme release in rabbit neutrophils; type: cell-based
Protocol: The peptide that was prepared and tested was formyl-Met-Acc^6 -Phe--OH.

neutrophils [3] = biological target: T2, neutrophils (Homo sapiens, UniProt P21462); assay: Chemoattraction of human neutrophils; type: cell-based
T2 sequence (P21462 1-350): T1 sequence (P21462 1-350)
Protocol: (§2) In another preferred embodiment of the present invention, Y is 4-aminotetrahydropyran-4-carboxylic acid (Thp). […] The peptide that was prepared and tested was formyl-Thp-Leu-Phe-OMe.
The peptide that was prepared and tested was formyl-Met-Dpg-Phe--OH

neutrophils [4] = biological target: T2, neutrophils; assay: Superoxide production by human neutrophils (backbone analog); type: cell-based
Protocol: as §2

neutrophils [5] = biological target: T2, neutrophils; assay: Binding (Table I, Cell Biology Data)
Text: Three non-DTPA derivatized peptides were included in the assay for comparison.

neutrophils [6] = biological target: T2, neutrophils; assay: Free radicals antagonist (inhibition of ForMLF stimulated free radical chemiluminescence); type: cell-based
neutrophils [7] = biological target: T2, neutrophils; assay: Free radicals agonist (neutrophil free radical chemiluminescence); type: cell-based; conditions: class symbol
[8] = system: neutrophils / human umbilical vein endothelial cells; assay: Adhesion agonist (neutrophil-endothelial cell adhesion assay); type: cell-based; conditions: class symbol; read-out: Adhesion Agonist EC50
Protocol: (§3) The unconjugated peptide iBoc-MLFK was evaluated in a neutrophil-endothelial cell adhesion assay. In this assay, neutrophils (5×10^5) labeled with 5-carboxyfluorescein diacetate were added into wells of a 48 well dish containing confluent human umbilical vein endothelial cells. The iBoc-MLFK peptide was added at a concentration of 10 μM 10 min prior to stimulation of neutrophils with 30 nM ForMLF. Percent adhesion was determined by washing off unattached neutrophils after an incubation period of 25 minutes. This peptide inhibited adhesion by 66% at this concentration. Subsequently, concentrations between 0.1-3.0 μM were examined. […] Inhibition of adhesion would reduce the infiltration of leukocytes, such as neutrophils, to a diseased site, thereby limiting the tissue damage associated with inflammation.
(§4) The procedure of Example 5 was repeated for additional CP's within the scope of the present invention. The results are shown in Table I. In the table, MPO is myeloperoxidase assay, a "-" sign means there was no effect at 30 μM, a "+" sign means there was a positive effect at 30 μM, and "N.T." means "Not

neutrophils [9] = biological target: T2, neutrophils; assay: MPO (myeloperoxidase assay) release; type: cell-based; conditions: pH5
Protocol: as §4

[10] = system: neutrophils / human umbilical vein endothelial cells; assay: cells; type: cell-based; conditions: read-out: Adhesion Antagonist IC50
Protocol: as §3, §4

**Q.** With CSCC[C@H](NC=O)C(=O)N[C@@H](CC(C)C)C(=O)N[C@@H](Cc1ccccc1)C(=O)N[C@H](CCCCNC(=O)c1ccc(NN)nc1)C(N)=O [Example 99mTc-HP4, metal not drawn] (For-MLF[dK](HYNIC)-NH2) as the compound, how does the “percent residual circulating radioactivity that was cell associated” value (E. coli infection) read?
**A.** approximately 25%

**Q.** And the “radioactivity of pus associated with WBC's” value (E. coli infection)?
**A.** approximately 90%

**Q.** For CCCC[C@H](NC=O)C(=O)N[C@@H](CC(C)C)C(=O)N[C@@H](Cc1ccccc1)C(=O)N[C@@H](CCCC)C(=O)N[C@@H](Cc1ccc(O)cc1)C(=O)N[C@@H](CCCCN)C(=O)O [For-NleLFNleYK, N-formyl-norleucyl-leucyl-phenylalanyl-norleucyl-tyrosyl-lysine] (For-[Nle]LF[Nle]YK-OH), which EC50 [1] is on record?
**A.** ~0.001 µM

**Q.** And the EC50 [2]?
**A.** 0.001 µM

**Q.** For CSCC[C@H](NC=O)C(=O)N[C@@H](CC(C)C)C(=O)N[C@@H](Cc1ccccc1)C(=O)NCCCCCCNC(=O)c1ccc(NN)nc1 [HP3, For-MLFNH(CH2)6 NH-HYNIC], which “effects on WBC level” value (sterile inflammation) is on record?
**A.** no significant effects

**Q.** Which “maximal response of superoxide production” value (human neutrophils) does the source give for CCCCCCCCCCCCCC(=O)O[C@@H]1[C@@H](C)[C@@]2(O)[C@@H](C=C(CO)C[C@]3(O)C(=O)C(C)=C[C@@H]23)[C@@H]2C(C)(C)[C@]12OC(C)=O [PMA, phorbol myristate acetate] here?
**A.** 22.9 nmol 02^- produced/10^6 cells/10 min

**Q.** With CSCC[C@H](NC=O)C(=O)NC1(C(=O)N[C@@H](Cc2ccccc2)C(=O)O)CCCCC1 [formyl-Met-Acc^6 -Phe--OH] (For-Met-[Ac6c]-Phe-OH) as the compound, how does the lysozyme release (rabbit neutrophils) read?
**A.** potent inducer of lysozyme release

**Q.** What does the source list for formyl-Thp-Leu-Phe-OMe?
**A.** chemoattractant activity (neutrophils [3]): chemoattractant agent to human neutrophils; stimulation of superoxide production (neutrophils [4]): did not stimulate superoxide production

**Q.** With iBoc--MLF--O--SPNH [Example 38] as the compound, how does the EC50 (neutrophils [5]) read?
**A.** 0.15 to 5 µM

**Q.** And the IC50 (neutrophils [6])?
**A.** 5 to 6 µM

**Q.** And the EC50 (neutrophils [7])?
**A.** > 30 µM

**Q.** And the EC50 [8]?
**A.** < 30 µM

**Q.** What about the EC50 (neutrophils [9]) of the same compound?
**A.** 0.4 µM

**Q.** What about the IC50 [10] of the same compound?
**A.** > 30 µM

Source: patent US5792444A, “Labeled chemotactic peptides to image focal sites of infection or inflammation” (The General Hospital Corporation, priority 1993, dated 1998)
